“And” between values parts separate entries of the source, which are not always exact repeats. Identical values can stand only once.
Legend:
Type in all cases: in vivo
[1] = system: human lung cancer strain (LC-11); assay: Test Example 2: anti-tumor effect of TPI or TUPI with or without X-ray irradiation in LC-11-transplanted nude mice; settings: for RTV Day 15 / RTV Day 22 / RTV Day 29: mean ± S.D.
Protocol: (§1) TPI was suspended in a 0.5% (w/v) HPMC solution to adjust the concentration to 1.5 or 5.0 mg/mL, and the suspension was stirred at room temperature for about 10 minutes by means of a stirrer. Subsequently, the suspension was ultrasonicated under ice cooling for about five minutes, to thereby prepare a TPI drug liquid with a dose of 15 mg/kg/day or 50 mg/kg/day.
as §1, with “5-Chloro-6-aminouracil (hereinafter abbreviated as TUPI) was” for “TPI was”, “to” for “to 1.5 or”, “a TUPI” for “a TPI”, “of” for “of 15 mg/kg/day or”
By means of a radiation apparatus (model: MBR-1505R2, product of Hitachi Medical Corp.), mice were irradiated with X-rays under such irradiation conditions that the unit dose to one mouse was adjusted to 2 Gy or 5 Gy, by controlling the distance from the radiation source to the mouse. Specifically, radiation was applied locally to the right femoral region of each mouse where cells of a human tumor strain had been transplanted. In order to avoid systemic irradiation, the mouse was placed in a lead box so that only the right leg was exposed to the radiation.
The human lung cancer strain (LC-11) subcutaneously transplanted into the back of a BALB/cA-nu mouse and grown beforehand were removed, cut into small pieces (about 2×2 mm^2) with scissors in physiological saline, and subcutaneously transplanted into the right femoral region of 5- to 6-week-old mice of the same strain with a transplantation needle. The thus-treated mice were bred for adaptation for at least 1 to 2 weeks and divided into a control group, radiation-only groups, drug-only groups, and radiation-drug combination groups, each group consisting of 6 mice, such that the average tumor volume and the standard deviation (S.D.) were equalized to a maximum extent between groups. Then, administration of the drug and irradiation were started. To each of the mice of the groups subjected to drug administration, the aforementioned TPI liquid or TUPI liquid was perorally administered, by means of an oral administration probe, once a day at a dose of 0.1 mL/10 g-body weight for 14 continuous days. The mice of the groups subjected to radiation were irradiated with X-rays at a dose of 2 Gy or 5 Gy through the aforementioned method within about one hour after administration of the TPI liquid or the TUPI liquid on the test day 1 and day 8. To the cancer-bearing mice of the control group (non-radiation/non-drug administration group) and those of the radiation-only groups, only 0.5% HPMC liquid was perorally administered through the same method for 14 continuous days.
The tumor volume of each mouse of the above groups, which was calculated by the equation 1 in Test Example 1, was determined before the start of the treatment test, and on day 3, day 5, day 8 (1 week after), day 11, day 15 (after termination of administration, 2 weeks after), day 18, day […], day 25, and day 29 (4 weeks after). A relative tumor volume (RTV) to the tumor volume at the start of the test was obtained for each mouse. […] Then, the average tumor growth inhibition rate (IR: %) with respect to the control group was calculated on day 15, day 22, and day 29 (after termination of the treatment period) in a manner similar to that of Test Example 1.

mouse = assay: No observed adverse effect level on peroral administration to a mouse for 14 days; settings: perorally administered to a mouse for 14 days; TAS-102 dose as reduced to FTD
Protocol: α,α,α-Trifluorothymidine (hereinafter abbreviated as FTD) and TPI were suspended in a 0.5% (w/v) HPMC solution to adjust their concentrations to 5.0 mg/mL and 2.65 mg/mL, respectively, and the suspension was stirred at room temperature for about 10 minutes. Subsequently, the suspension was ultrasonicated under ice cooling, to thereby prepare a drug liquid with a dose of 50 mg/kg/day (as reduced to FTD). Hereinafter, the drug liquid is referred to as TAS-102. The dose of the TAS-102 liquid is a “no observed adverse effect level” when the liquid is perorally administered to a mouse for 14 days.
FTD was suspended in a 0.5% (w/v) HPMC solution to adjust their concentrations to 5.0 mg/mL, and the suspension was stirred at room temperature for about 10 minutes. Subsequently, the suspension was ultrasonicated under ice cooling, to thereby prepare a FTD drug liquid with a dose of 50 mg/kg/day. The dose of FTD is a “no observed adverse effect level” when the liquid is perorally administered to a mouse for 14 days.

[2] = system: human lung cancer strain (LC-11); assay: Test Example 4: anti-tumor effect of TAS-102 or FTD with or without X-ray irradiation in LC-11-transplanted nude mice
[3] = 50 mg/kg p.o. once a day for 14 days + X-ray 2 Gy on day 1 and day 8
[4] = 50 mg/kg p.o. once a day for 14 days, no X-ray
[5] = 50 mg/kg (as reduced to FTD) p.o. once a day for 14 days + X-ray 2 Gy on day 1 and day 8
[6] = 50 mg/kg (as reduced to FTD) p.o. once a day for 14 days, no X-ray

## Nc1[nH]c(=O)[nH]c(=O)c1Cl [TUPI, 5-Chloro-6-aminouracil, reference compound]
[1]; [3]
  IR (%) Day 15: 36.6%
  IR (%) Day 22: 41.2%
  IR (%) Day 29: 50.2%
  RTV Day 15: 3.2 ± 0.8
  RTV Day 22: 5.3 ± 1.7
  RTV Day 29: 8.8 ± 2.5
[1]; [4]
  IR (%) Day 15: 12.7%
  IR (%) Day 22: 17.5%
  IR (%) Day 29: 21.4%
  RTV Day 15: 4.4 ± 1.8
  RTV Day 22: 7.4 ± 3.3
  RTV Day 29: 14.0 ± 6.3
[1]; 50 mg/kg, no X-ray
  anti-tumor effect of the drug singly administered (in words): virtually no anti-tumor effect
[1]; drug + X-ray 2 Gy
  potentiation of anti-tumor effect of X-ray radiation (in words): no potentiation of anti-tumor effect was observed

## O=c1[nH]c(=O)n([C@H]2C[C@H](O)[C@@H](CO)O2)cc1C(F)(F)F [FTD, α,α,α-Trifluorothymidine]
mouse
  no observed adverse effect level: 50 mg/kg/day
[2]; [5]
  IR (%) Day 15: 35.8%
  IR (%) Day 22: 48.6%
  IR (%) Day 29: 58.5%
[2]; [6]
  IR (%) Day 15: 52% and 51.8%
  IR (%) Day 22: 57% and 57.2%
  IR (%) Day 29: 59%
[2]; 50 mg/kg + X-ray 2 Gy
  potentiation of anti-tumor effect of X-ray radiation (in words): the anti-tumor effect did not increase

Source: patent publication US8440675B2, “Potentiator of radiation therapy” (Taiho Pharmaceutical Co., Ltd., priority 2006, dated 2013)
